US8088918B2, “Noncardiotoxic pharmaceutical compounds” (Williamsburg Holdings LLC, priority 2004, dated 2012)

Assays:
[1] = parent drugs; cited from earlier work
[2] = Stability testing of prodrugs in human plasma; assay type: in vitro ADME; conditions: 10 μM, ca. 37° C.
Description: (§1) Pooled human plasma was obtained from Bioreclamation (East Meadow, N.Y.) by collection into sodium EDTA as the anticoagulant, and was stored at ca −20° C. prior to use. Prior to use, the plasma defrosted and was spun at ca. 3000 rpm for 5 minutes to remove any precipitate. The pH of the plasma was adjusted to pH 7.4 by careful addition of NaH2PO4 buffer.
(§2) Plasma stability was assessed by incubation of 10 μM of each compound prepared in Examples 1-5 with human plasma, in duplicate, at ca. 37° C. with shaking. Each compound prepared in Examples 1-5 was also incubated at 10 μM in PBS as a control for compound heat stability. Aliquots were removed at 0, 0.5, 1 and 2 hours and stored at −20° C. until analysis.
(§3) For analysis, plasma samples were extracted in 1 part acetonitrile and isolation of the supernatant. Analysis of each compound prepared in Examples 1-5 in plasma extracts was conducted by an LC-MS method at each time interval and quantification was achieved by comparison of the response due to the sample to that of a three point standard curve. Appearance of the parent drug the hydroxymetabolites were also monitored at each time interval. The % degradation following incubation at each time point was calculated by comparison of the parent concentration to that at 0 minutes.

[3] = Stability testing of prodrugs in rat plasma (elevated esterase activity); assay type: in vitro ADME, Sprague-Dawley rat; conditions: 10 μM, ca. 37° C.
Description: as §1, with “Sprague-Dawley rat” for “Pooled human”, “obtained” for “obtained from Bioreclamation (East Meadow, N.Y.)”
as §2, with “rat” for “human”
as §3, with “drug and” for “drug”

[4] = Metabolic stability, microsomal incubations without inhibitor; assay type: in vitro ADME; conditions: 10 μM, 0.5 mg/mL microsomal protein
Description: (§4) The metabolic stability of each compound prepared in Examples 1-5 was assessed in microsomal preparations obtained from BD Gentest (Woburn, Mass.).
(§5) The metabolic stability of each compound prepared in Examples 1-5 was assessed in duplicate by incubation of 10 μM compound with 0.5 mg/mL microsomal protein, 1 mM in 0.1 M phosphate buffer, pH 7.4 in the presence and absence of a CYP3A4 inhibitor (ketoconazole). The reaction mixture was pre-incubated, in the absence of the microsomes, at ca. 37° C. for 5 minutes, followed by initiation of the incubation by the addition of microsomal protein and maintained at ca. 37° C. for a further 0, 30 and 60 minutes. After the appropriate incubation time, the mixtures were quenched by the addition of one volume of acetonitrile and the supernatant was isolated by centrifugation. Positive control incubations (7-ethoxycoumarin) were performed in the same manner as the compounds from Examples 1-5 and quenched after 0 and 30 minutes. In addition, negative control incubations were performed for 60 minutes in the absence of NADPH to assess chemical stability.
(§6) Analysis of supernatants from each time interval was conducted for each compound prepared in Examples 1-5 by LC-MS analysis. Quantification of the disappearance on the parent drug was achieved by comparison of the sample response to that of a suitable standard curve constructed in 0.1 M phosphate buffer, pH 7.4. The standard curve ranged between ≦1% up to ≧100% of the dosing concentration.
(§7) The % turnover following 60 minutes of incubation was calculated by comparison of the parent concentration to that at 0 minutes. The % degradation was calculated in the same manner from the negative control incubations. Appearance of the parent drug and the hydroxymetabolites were also monitored at each time interval.

[5] = Metabolic stability, microsomal incubations with ketoconazole (CYP3A4 inhibitor); assay type: in vitro ADME; conditions: 10 μM, 0.5 mg/mL microsomal protein
Description: as §4, §5, §6, §7

recombinant human CYP3A4 = biological target: T1, recombinant human CYP3A4 (Homo sapiens, UniProt P08684); experiment: Metabolic stability in the presence of CYP3A4 isozyme; assay type: in vitro ADME; conditions: 10 μm compound
T1 construct: purchased BD Gentest (Woburn, Mass.)
Description: (§8) The metabolic stability of each compound prepared in Examples 1-5 was assessed in the presence of CYP2D6 and CYP3A4 obtained from BD Gentest (Woburn, Mass.).
(§9) The metabolic stability of each compound prepared in Examples 1-5 was assessed in duplicate by incubation of 10 μm compound with recombinant human CYP2D6 and 3A4 using similar conditions to those in Example 9. Samples were removed for analysis at 0, 30 and 60 minutes and extracted with one volume of organic solvent. Appropriate controls were included. Quantification of the disappearance of the prodrug was conducted LC-MS. Appearance of metabolites was also monitored.

CYP2D6 = CYP2D6 (Homo sapiens, UniProt P10635); experiment: Metabolic stability in the presence of CYP2D6 isozyme; assay type: in vitro ADME; set-up: purchased BD Gentest (Woburn, Mass.); conditions: 10 μm compound
Description: as §8, §9

[6] = Stability testing in simulated gastric fluids; conditions: 10 μM, saline pH approximately 1 plus pepsin
[7] = Stability testing in simulated intestinal fluids; conditions: 10 μM

CYP2D6, sequence (P10635 whole entry): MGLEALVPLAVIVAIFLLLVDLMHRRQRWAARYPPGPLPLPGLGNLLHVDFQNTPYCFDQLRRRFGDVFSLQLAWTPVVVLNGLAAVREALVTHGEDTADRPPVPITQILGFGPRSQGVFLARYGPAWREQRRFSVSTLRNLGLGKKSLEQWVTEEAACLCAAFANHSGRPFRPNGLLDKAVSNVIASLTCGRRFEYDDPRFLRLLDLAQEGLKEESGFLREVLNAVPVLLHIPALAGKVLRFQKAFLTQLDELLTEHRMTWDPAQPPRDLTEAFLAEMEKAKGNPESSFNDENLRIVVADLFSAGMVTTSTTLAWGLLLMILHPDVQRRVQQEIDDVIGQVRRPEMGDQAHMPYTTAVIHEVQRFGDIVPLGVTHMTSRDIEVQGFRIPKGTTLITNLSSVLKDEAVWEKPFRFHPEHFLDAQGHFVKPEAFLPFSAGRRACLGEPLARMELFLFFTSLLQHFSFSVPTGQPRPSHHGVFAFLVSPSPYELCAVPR
T1 sequence (P08684 whole entry): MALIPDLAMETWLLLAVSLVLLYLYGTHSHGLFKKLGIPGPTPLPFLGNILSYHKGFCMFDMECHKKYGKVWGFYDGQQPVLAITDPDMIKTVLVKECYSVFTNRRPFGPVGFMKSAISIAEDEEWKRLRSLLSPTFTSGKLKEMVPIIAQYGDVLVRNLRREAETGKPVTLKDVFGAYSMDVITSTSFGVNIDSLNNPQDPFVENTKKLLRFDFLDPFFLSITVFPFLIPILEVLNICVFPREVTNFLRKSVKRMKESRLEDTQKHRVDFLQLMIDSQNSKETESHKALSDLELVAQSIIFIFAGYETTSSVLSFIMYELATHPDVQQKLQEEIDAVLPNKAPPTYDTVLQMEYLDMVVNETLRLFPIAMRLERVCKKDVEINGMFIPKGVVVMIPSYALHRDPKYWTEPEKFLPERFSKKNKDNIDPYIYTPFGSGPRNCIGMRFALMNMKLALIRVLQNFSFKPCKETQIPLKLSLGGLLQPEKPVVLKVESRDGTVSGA

## CN(C)CCC=C1c2ccccc2COc2ccccc21 (mixture of isomers) [doxepin, Doxepin]
[1]
  pKa: 8.00

## CCOP(=O)(OCC)N(C)CCCN1c2ccccc2CCc2ccccc21 [RIC-02, [3-(10,11-Dihydro-dibenzo[b,f]azepin-5-yl)-propyl]-methyl-phosphoramidic acid diethyl ester]
[2]; incubation time 0 min
  Loss of parent compound in human plasma (%): 0.00%
[2]; incubation time 30 min
  Loss of parent compound in human plasma (%): −.43%
[2]; incubation time 60 min
  Loss of parent compound in human plasma (%): 9.94%
[2]; incubation time 120 min
  Loss of parent compound in human plasma (%): 7.93%
[3]; incubation time 0 min
  Loss of parent compound in rat plasma (%): 0.00%
[3]; incubation time 30 min
  Loss of parent compound in rat plasma (%): 4.67%
[3]; incubation time 60 min
  Loss of parent compound in rat plasma (%): 11.01%
[3]; incubation time 120 min
  Loss of parent compound in rat plasma (%): 9.02%
[4]; incubation time 30 min
  Loss of parent compound with no ketoconazole (%): 76.17%
[4]; incubation time 60 min
  Loss of parent compound with no ketoconazole (%): 91.40%
[5]; incubation time 30 min
  Loss of parent compound with ketoconazole (%): −17.26%
[5]; incubation time 60 min
  Loss of parent compound with ketoconazole (%): 11.04%
Recombinant human CYP3A4; incubation time 0 min
  Loss of parent compound with CYP3A4 isozyme (%): 0.00%
Recombinant human CYP3A4; incubation time 30 min
  Loss of parent compound with CYP3A4 isozyme (%): 97.05%
Recombinant human CYP3A4; incubation time 60 min
  Loss of parent compound with CYP3A4 isozyme (%): 98.62%
CYP2D6; incubation time 0 min
  Loss of parent compound with CYP2D6 isozyme (%): 0.00%
CYP2D6; incubation time 30 min
  Loss of parent compound with CYP2D6 isozyme (%): 13.19%
CYP2D6; incubation time 60 min
  Loss of parent compound with CYP2D6 isozyme (%): 37.11%
[6]; incubation time 0 min
  Loss of parent compound in simulated gastric fluid (%): 0.00%
[6]; incubation time 30 min
  Loss of parent compound in simulated gastric fluid (%): 49.94%
[6]; incubation time 60 min
  Loss of parent compound in simulated gastric fluid (%): 74.67%
[6]; incubation time 120 min
  Loss of parent compound in simulated gastric fluid (%): 93.12%
[7]; phosphate pH 6, incubation time 0 min
  Loss of parent compound in simulated intestinal fluid (%): 0.00%
[7]; phosphate pH 6, incubation time 30 min
  Loss of parent compound in simulated intestinal fluid (%): 11.65%
[7]; phosphate pH 6, incubation time 60 min
  Loss of parent compound in simulated intestinal fluid (%): 7.83%
[7]; phosphate pH 6, incubation time 120 min
  Loss of parent compound in simulated intestinal fluid (%): 9.29%

## CN(C)CCc1c[nH]c2ccc(C[C@H]3COC(=O)N3)cc12 [Zolmitriptan]
[1]
  pKa: 9.52

## CNCCC(Oc1ccccc1C)c1ccccc1 (stereo not drawn) [atomoxetine, Atomoxetine]
[1]
  pKa: 10.12

## CN(C)CCOC(C)(c1ccccc1)c1ccc(Cl)cc1 (stereo not drawn) [chlorphenoxamine, Chlorphenoxamine]
[1]
  pKa: 8.21

## COc1cc(N)c(Cl)cc1C(=O)NC1CCN(CCCOc2ccc(F)cc2)CC1OC (stereo not drawn) [cisapride, Cisapride]
[1]
  pKa: 7.04

## CN1CCC[C@@H]1CCO[C@](C)(c1ccccc1)c1ccc(Cl)cc1 [clemastine]
[1]
  pKa: 10.23

## CN(C)CCCN1c2ccccc2CCc2ccc(Cl)cc21 [clomipramine]
[1]
  pKa: 9.50

## CN1CCN(C2=Nc3cc(Cl)ccc3Nc3ccccc32)CC1 [clozapine, Clozapine]
[1]
  pKa: 8.20

## CN1CCN(C(c2ccccc2)c2ccccc2)CC1 [cyclizine]
[1]
  pKa: 8.35

## CN(C)CCC=C1c2ccccc2C=Cc2ccccc21 [cyclobenzaprine, Cyclobenzaprine]
[1]
  pKa: 9.21

## CN1CCC[C@@H]1Cc1c[nH]c2ccc(CCS(=O)(=O)c3ccccc3)cc12 [eletriptan, Eletriptan]
[1]
  pKa: 10.13

## CN(C)CCC[C@@]1(c2ccc(F)cc2)OCc2cc(C#N)ccc21 [escitalopram, Escitalopram]
[1]
  pKa: 9.60

## COc1ccc(OCC2CN(C)CCC2c2ccccc2)cc1 (stereo not drawn) [femoxetine, Femoxetine]
[1]
  pKa: 9.00

## CN[C@@H]1CCc2[nH]c3ccc(C(N)=O)cc3c2C1 [frovatriptan, Frovatriptan]
[1]
  pKa: 10.63

## CNCCCC12CCC(c3ccccc31)c1ccccc12 [maprotiline]
[1]
  pKa: 10.20

## Cc1cccc(CN2CCN(C(c3ccccc3)c3ccc(Cl)cc3)CC2)c1 (stereo not drawn) [meclizine]
[1]
  pKa: 7.32

## COc1c(N2C[C@@H]3CCCN[C@@H]3C2)c(F)cc2c(=O)c(C(=O)O)cn(C3CC3)c12 [moxifloxacin]
[1]
  pKa: 10.01

## CCc1nn(CCCN2CCN(c3cccc(Cl)c3)CC2)c(=O)n1CCOc1ccccc1 [nefazodone]
[1]
  pKa: 7.90

## COc1cc(N)c(Cl)cc1C(=O)NC1CCNCC1OC (stereo not drawn) [norcisapride]
[1]
  pKa: 8.46

## Fc1ccc(-n2cc(C3CCNCC3)c3cc(Cl)ccc32)cc1 [norsertindole]
[1]
  pKa: 10.61

## CC1COc2c(N3CCN(C)CC3)c(F)cc3c(=O)c(C(=O)O)cn1c23 (stereo not drawn) [ofloxacin]
[1]
  pKa: 7.09

## O=C1NC(=O)C(c2ccccc2)(c2ccccc2)N1 [phenytoin]
[1]
  pKa: 8.31

## CC(N)C12CC3CC(CC(C3)C1)C2 (stereo not drawn) [rimantadine]
[1]
  pKa: 11.70

## CN(C)CCc1c[nH]c2ccc(Cn3cncn3)cc12 [rizatriptan]
[1]
  pKa: 9.49

## O=C1NCCN1CCN1CCC(c2cn(-c3ccc(F)cc3)c3ccc(Cl)cc23)CC1 [sertindole, Sertindole]
[1]
  pKa: 9.06

## CC(C)(C)c1ccc(C(O)CCCN2CCC(C(O)(c3ccccc3)c3ccccc3)CC2)cc1 (stereo not drawn) [terfenadine, Terfenadine]
[1]
  pKa: 9.60

## CN1CCN(CCCN2c3ccccc3Sc3ccc(C(F)(F)F)cc32)CC1 [trifluoperazine]
[1]
  pKa: 7.98

## O=C1Cc2cc(CCN3CCN(c4nsc5ccccc45)CC3)c(Cl)cc2N1 [ziprasidone]
[1]
  pKa: 8.24
